Reference: PubChem BioAssay AID1963432 (Molecular Pharmacology Branch, DTP, NCI, 2024)
Values joined by “and” are separate entries in the source; they are usually repeats but may differ in a detail not shown here. Equal values may be shown once.

Test system: SYO-1 complex spheroid growth, percent test/control
Test: Anticancer human tumor SYO-1 cell line growth inhibition [Asc];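 note: compound exposure lasted 7 days after spheroids grew 3 days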;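 for viability, T/C: 100% = DMSO vehicle control viability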
Settings: for viability, T/C: stronger effect = lower value; active = viability on the fitted dose curve at most 10% of control; inactive = the rest
Procedure, shortened: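 Complex solid-tumor spheroids incorporating human endothelial and mesenchymal stem cells received single agents or combinations over half-log dilution ranges anchored to clinical Cmax.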

[1] = curve of first compound, second compound 0.01 µM
[2] = curve of first compound, second compound 0.0316 µM
[3] = curve of first compound, second compound 0.1 µM
[4] = curve of first compound, second compound 0.316 µM
[5] = curve of first compound, second compound 1 µM

Cc1nc(N2CCC3(CC2)COC(C)C3N)c(CO)nc1Sc1ccnc(N)c1Cl (stereo unspecified) + CCN1C(C(=O)NC23CCC(C(=O)O)(CC2)CC3)C(c2cccc(Cl)c2F)C2(C(=O)Nc3cc(Cl)ccc32)C12CCCCC2
> 3000 nM: IC50 (curve of first compound, second compound 0.00949 µM) | IC50 (curve of first compound, second compound 0.03 µM) | IC50 (curve of first compound, second compound 0.0949 µM)
inactive: viability, T/C (second compound 0.00949 µM, first compound 0.00949 µM) 111% | viability, T/C (second compound 0.00949 µM, first compound 0.03 µM) 103% | viability, T/C (second compound 0.00949 µM, first compound 0.0949 µM) 112% | viability, T/C (second compound 0.00949 µM, first compound 0.3 µM) 109% | viability, T/C (second compound 0.00949 µM, first compound 0.949 µM) 116% | viability, T/C (second compound 0.00949 µM, first compound 3 µM) 114% | viability, T/C (second compound 0.03 µM, first compound 0.00949 µM) 111% | viability, T/C (second compound 0.03 µM, first compound 0.03 µM) 103% | viability, T/C (second compound 0.03 µM, first compound 0.0949 µM) 108% | viability, T/C (second compound 0.03 µM, first compound 0.3 µM) 99.7% | viability, T/C (second compound 0.03 µM, first compound 0.949 µM) 117% | viability, T/C (second compound 0.03 µM, first compound 3 µM) 117% | viability, T/C (second compound 0.0949 µM, first compound 0.00949 µM) 82.8% | viability, T/C (second compound 0.0949 µM, first compound 0.03 µM) 81.1% | viability, T/C (second compound 0.0949 µM, first compound 0.0949 µM) 86.8% | viability, T/C (second compound 0.0949 µM, first compound 0.3 µM) 91.2% | viability, T/C (second compound 0.0949 µM, first compound 0.949 µM) 96.9% | viability, T/C (second compound 0.0949 µM, first compound 3 µM) 83.3% | viability, T/C (second compound 0.3 µM, first compound 0.00949 µM) 24.3% | viability, T/C (second compound 0.3 µM, first compound 0.03 µM) 19.9% | viability, T/C (second compound 0.3 µM, first compound 0.0949 µM) 23.2% | viability, T/C (second compound 0.3 µM, first compound 0.3 µM) 17.4% | viability, T/C (second compound 0.3 µM, first compound 0.949 µM) 17.4% | viability, T/C (second compound 0.3 µM, first compound 3 µM) 10.9%
< 9.49 nM: IC50 (curve of first compound, second compound 0.3 µM) | IC50 (curve of first compound, second compound 0.949 µM) | IC50 (curve of first compound, second compound 3 µM)
active: viability, T/C (second compound 0.949 µM, first compound 0.00949 µM) 3.59% | viability, T/C (second compound 0.949 µM, first compound 0.03 µM) 2.68% | viability, T/C (second compound 0.949 µM, first compound 0.0949 µM) 3.26% | viability, T/C (second compound 0.949 µM, first compound 0.3 µM) 1.67% | viability, T/C (second compound 0.949 µM, first compound 0.949 µM) 1.74% | viability, T/C (second compound 0.949 µM, first compound 3 µM) 0.54% | viability, T/C (second compound 3 µM, first compound 0.00949 µM) 0.99% | viability, T/C (second compound 3 µM, first compound 0.03 µM) 1.08% | viability, T/C (second compound 3 µM, first compound 0.0949 µM) 0.94% | viability, T/C (second compound 3 µM, first compound 0.3 µM) 2.3% | viability, T/C (second compound 3 µM, first compound 0.949 µM) 0.69% | viability, T/C (second compound 3 µM, first compound 3 µM) 0.39%

COc1c(OCCCN2CCOCC2)ccc2c3n(c(=NC(=O)c4cnc(N)nc4)nc12)CCN3 + CNC(C)C(=O)NC1CN(S(=O)(=O)c2cccc(S(=O)(=O)N3CCC4CCC(C(=O)NC(c5ccccc5)c5ccccc5)N4C(=O)C(NC(=O)C(C)NC)C3)c2)CCC2CCC(C(=O)NC(c3ccccc3)c3ccccc3)N2C1=O
inactive: viability, T/C (second compound 0.01 µM, first compound 0.00316 µM) 106% | viability, T/C (second compound 0.01 µM, first compound 0.01 µM) 109% | viability, T/C (second compound 0.01 µM, first compound 0.0316 µM) 116% | viability, T/C (second compound 0.01 µM, first compound 0.1 µM) 106% | viability, T/C (second compound 0.01 µM, first compound 0.316 µM) 96% | viability, T/C (second compound 0.01 µM, first compound 1 µM) 68.3% | viability, T/C (second compound 0.0316 µM, first compound 0.00316 µM) 113% | viability, T/C (second compound 0.0316 µM, first compound 0.01 µM) 126% | viability, T/C (second compound 0.0316 µM, first compound 0.0316 µM) 118% | viability, T/C (second compound 0.0316 µM, first compound 0.1 µM) 110% | viability, T/C (second compound 0.0316 µM, first compound 0.316 µM) 98.2% | viability, T/C (second compound 0.0316 µM, first compound 1 µM) 72.9% | viability, T/C (second compound 0.1 µM, first compound 0.00316 µM) 107% | viability, T/C (second compound 0.1 µM, first compound 0.01 µM) 119% | viability, T/C (second compound 0.1 µM, first compound 0.0316 µM) 118% | viability, T/C (second compound 0.1 µM, first compound 0.1 µM) 107% | viability, T/C (second compound 0.1 µM, first compound 0.316 µM) 102% | viability, T/C (second compound 0.1 µM, first compound 1 µM) 68.7% | viability, T/C (second compound 0.316 µM, first compound 0.00316 µM) 111% | viability, T/C (second compound 0.316 µM, first compound 0.01 µM) 122% | viability, T/C (second compound 0.316 µM, first compound 0.0316 µM) 116% | viability, T/C (second compound 0.316 µM, first compound 0.1 µM) 105% | viability, T/C (second compound 0.316 µM, first compound 0.316 µM) 96.1% | viability, T/C (second compound 0.316 µM, first compound 1 µM) 69.2% | viability, T/C (second compound 1 µM, first compound 0.00316 µM) 114% | viability, T/C (second compound 1 µM, first compound 0.01 µM) 124% | viability, T/C (second compound 1 µM, first compound 0.0316 µM) 117% | viability, T/C (second compound 1 µM, first compound 0.1 µM) 113% | viability, T/C (second compound 1 µM, first compound 0.316 µM) 95.1% | viability, T/C (second compound 1 µM, first compound 1 µM) 73.3%
> 1000 nM: IC50 [1] | IC50 [2] | IC50 [3] | IC50 [4] | IC50 [5]

NC1CCC(NC2CC2c2ccccc2)CC1 (stereo unspecified)
inactive: viability, T/C (compound 0.000316 µM) 108% and 106% and 112% | viability, T/C (compound 0.001 µM) 102% and 97% and 97.1% | viability, T/C (compound 0.00316 µM) 90.9% and 95.4% and 93.3% | viability, T/C (compound 0.01 µM) 94.7% and 89.3% and 92.9% | viability, T/C (compound 0.0316 µM) 91.9% and 96.6% and 88.2% | viability, T/C (compound 0.1 µM) 90.8% and 84.5% and 86.5%
> 100 nM: IC50 (curve of compound)

Cc1nc(N2CCC3(CC2)COC(C)C3N)c(CO)nc1Sc1ccnc(N)c1Cl (stereo unspecified) + CNC(C)C(=O)NC1CN(S(=O)(=O)c2cccc(S(=O)(=O)N3CCC4CCC(C(=O)NC(c5ccccc5)c5ccccc5)N4C(=O)C(NC(=O)C(C)NC)C3)c2)CCC2CCC(C(=O)NC(c3ccccc3)c3ccccc3)N2C1=O
inactive: viability, T/C (second compound 0.00316 µM, first compound 0.00949 µM) 107% | viability, T/C (second compound 0.00316 µM, first compound 0.03 µM) 105% | viability, T/C (second compound 0.00316 µM, first compound 0.0949 µM) 109% | viability, T/C (second compound 0.00316 µM, first compound 0.3 µM) 96.5% | viability, T/C (second compound 0.00316 µM, first compound 0.949 µM) 106% | viability, T/C (second compound 0.00316 µM, first compound 3 µM) 102% | viability, T/C (second compound 0.01 µM, first compound 0.00949 µM) 105% | viability, T/C (second compound 0.01 µM, first compound 0.03 µM) 95.8% | viability, T/C (second compound 0.01 µM, first compound 0.0949 µM) 101% | viability, T/C (second compound 0.01 µM, first compound 0.3 µM) 105% | viability, T/C (second compound 0.01 µM, first compound 0.949 µM) 110% | viability, T/C (second compound 0.01 µM, first compound 3 µM) 105% | viability, T/C (second compound 0.0316 µM, first compound 0.00949 µM) 111% | viability, T/C (second compound 0.0316 µM, first compound 0.03 µM) 104% | viability, T/C (second compound 0.0316 µM, first compound 0.0949 µM) 102% | viability, T/C (second compound 0.0316 µM, first compound 0.3 µM) 106% | viability, T/C (second compound 0.0316 µM, first compound 0.949 µM) 115% | viability, T/C (second compound 0.0316 µM, first compound 3 µM) 108% | viability, T/C (second compound 0.1 µM, first compound 0.00949 µM) 109% | viability, T/C (second compound 0.1 µM, first compound 0.03 µM) 103% | viability, T/C (second compound 0.1 µM, first compound 0.0949 µM) 104% | viability, T/C (second compound 0.1 µM, first compound 0.3 µM) 116% | viability, T/C (second compound 0.1 µM, first compound 0.949 µM) 110% | viability, T/C (second compound 0.1 µM, first compound 3 µM) 110% | viability, T/C (second compound 0.316 µM, first compound 0.00949 µM) 105% | viability, T/C (second compound 0.316 µM, first compound 0.03 µM) 107% | viability, T/C (second compound 0.316 µM, first compound 0.0949 µM) 108% | viability, T/C (second compound 0.316 µM, first compound 0.3 µM) 107% | viability, T/C (second compound 0.316 µM, first compound 0.949 µM) 119% | viability, T/C (second compound 0.316 µM, first compound 3 µM) 102% | viability, T/C (second compound 1 µM, first compound 0.00949 µM) 103% | viability, T/C (second compound 1 µM, first compound 0.03 µM) 109% | viability, T/C (second compound 1 µM, first compound 0.0949 µM) 104% | viability, T/C (second compound 1 µM, first compound 0.3 µM) 103% | viability, T/C (second compound 1 µM, first compound 0.949 µM) 115% | viability, T/C (second compound 1 µM, first compound 3 µM) 107%
> 3000 nM: IC50 (curve of first compound, second compound 0.00316 µM) | IC50 [1] | IC50 [2] | IC50 [3] | IC50 [4] | IC50 [5]
